Values of other authors as cited in publication PMC7687576 (In Vitro Cellular & Developmental Biology. Animal, 2020).

What was measured:
CYP3A4 [1] = details: Caco-2 cultures; ref Cui et al. [2020]
CYP3A4 [2] = details: EpiIntestinal tissues; ref Cui et al. [2020]
EpiIntestinal tissues = details: IL-6 5–20 ng/mL for 72 h; ref Simon et al. [2019]

Row | Molecule | amount of 1-hydroxymidazolam metabolite detected (CYP3A4 [1]) | amount of 1-hydroxymidazolam (CYP3A4-selective metabolite) detected (CYP3A4 [2]) | decrease in CYP450 activity level (EpiIntestinal tissues) | reduction of CYP450 mRNA expression (CYP2C19, CYP2C9, CYP3A4) (EpiIntestinal tissues)
1 | Cc1ncc2n1-c1ccc(Cl)cc1C(c1ccccc1F)=NC2 [Midazolam] | negligible amount | substantial amount | – | –
2 | IL-6: pro-inflammatory cytokine IL-6 | – | – | 20–75% | 40–50%
